# Reference: ChEMBL document CHEMBL1158791, “Grayanane diterpenoids from the flowers of Rhododendron molle with cytotoxic activity against a Spodoptera frugiperda cell line” (J Nat Prod, 2005)
# Experiment: Cytotoxicity against Spodoptera frugiperda Sf9 cells after 48 hrs
# Format: functional, cell-based
# Conditions: Sf9, 48 h
row,SMILES,IC50
1,C=C1[C@@H]2[C@H](OC)[C@H](O)C(C)(C)[C@@]2(O)[C@H](O)C[C@]23C[C@@](C)(O)[C@H](CC[C@@H]12)[C@H]3O [RHODOMOLIN A],37.8 µg/mL
2,CC1(C)[C@H]2O[C@H]2[C@H]2[C@](C)(O)[C@@H]3CC[C@@H]4[C@H](O)[C@@]3(C[C@@H](O)[C@@]21O)C[C@@]4(C)O [RHODOJAPONIN],12.6 µg/mL
3,C=C1[C@@H]2[C@H](O)[C@H](O)C(C)(C)[C@@]2(O)[C@H](O)C[C@]23C[C@@](C)(O)[C@H](CC[C@@H]12)[C@H]3OC(C)=O [RHODOMOLIN B],25.6 µg/mL
4,C/C=C(\C)C(=O)O[C@H]1C[C@@H](OC(C)=O)[C@@]2(C(=O)OC)CO[C@H]3[C@@H](O)[C@@](C)([C@]45O[C@@]4(C)[C@@H]4C[C@H]5O[C@@H]5OC=C[C@@]54O)[C@H]4[C@]1(CO[C@]4(O)C(=O)OC)[C@@H]32 [AZADIRACHTIN A],20.3 µg/mL
